Paper PMC10223884, “Oligosaccharide Ligands of Galectin-4 and Its Subunits: Multivalency Scores Highly” (Molecules, 2023)
Several values for one entry are separate records, joined by “and”; a condition that tells them apart may be missing. Equal entries are not always repeated.

T1: Gal-4 (Homo sapiens, UniProt P56470)
T1 construct: made in house; host or cells: Escherichia coli Rosetta (DE3) pLysS
T1 sequence (P56470 1-323): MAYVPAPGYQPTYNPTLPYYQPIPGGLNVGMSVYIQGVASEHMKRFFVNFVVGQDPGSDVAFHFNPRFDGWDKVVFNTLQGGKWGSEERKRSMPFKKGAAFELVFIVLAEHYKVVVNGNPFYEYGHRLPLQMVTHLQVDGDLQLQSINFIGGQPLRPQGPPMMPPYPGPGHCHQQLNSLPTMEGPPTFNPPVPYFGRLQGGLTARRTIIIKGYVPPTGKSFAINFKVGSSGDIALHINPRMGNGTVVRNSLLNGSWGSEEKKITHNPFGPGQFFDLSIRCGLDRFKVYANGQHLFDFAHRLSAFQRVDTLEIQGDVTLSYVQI

T2: Gal-4NL (Homo sapiens, UniProt P56470)
T2 construct: designated as Gal-4NL (aa 1-160), and Gal-4CL (aa 169-323), respectively; made in house; host or cells: E. coli Rosetta (DE3) pLysS
T2 sequence (P56470 1-160): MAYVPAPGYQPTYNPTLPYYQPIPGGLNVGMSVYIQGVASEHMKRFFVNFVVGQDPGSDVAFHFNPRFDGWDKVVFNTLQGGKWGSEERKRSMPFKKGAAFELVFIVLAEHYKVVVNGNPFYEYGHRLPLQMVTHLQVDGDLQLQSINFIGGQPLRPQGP

T3: Gal-4CL (Homo sapiens, UniProt P56470)
T3 construct: designated as Gal-4NL (aa 1-160), and Gal-4CL (aa 169-323), respectively; made in house; host or cells: E. coli Rosetta (DE3) pLysS
T3 sequence (P56470 169-323): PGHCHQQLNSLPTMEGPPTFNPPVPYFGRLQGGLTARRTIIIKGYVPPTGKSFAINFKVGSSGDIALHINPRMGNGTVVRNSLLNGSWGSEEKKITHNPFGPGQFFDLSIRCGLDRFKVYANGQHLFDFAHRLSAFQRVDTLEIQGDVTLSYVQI

T4: asialofetuin (standard glycoprotein, MW 48.4 kDa) (UniProt P12763 19-359, glycoprotein without sialic acid; carries up to nine LacNAc epitopes)
T4 construct: Asialofetuin (desialylated fetuin), MW 48.4 kDa; Commercial asialofetuin is commonly from fetal calf serum; also called ASF
T4 sequence (looked up): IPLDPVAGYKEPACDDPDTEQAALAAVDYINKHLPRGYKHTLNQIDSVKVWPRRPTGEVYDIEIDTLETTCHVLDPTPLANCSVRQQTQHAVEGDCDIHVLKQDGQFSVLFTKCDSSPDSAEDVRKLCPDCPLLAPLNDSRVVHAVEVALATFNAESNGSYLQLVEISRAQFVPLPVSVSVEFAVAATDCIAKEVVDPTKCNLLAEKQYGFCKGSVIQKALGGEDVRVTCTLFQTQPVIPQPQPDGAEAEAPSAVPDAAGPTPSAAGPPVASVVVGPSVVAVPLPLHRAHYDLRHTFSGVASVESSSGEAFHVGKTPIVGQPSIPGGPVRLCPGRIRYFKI


Legend:
Gal-4 = molecular target: T1, Gal-4; assay: competitive ELISA, inhibition of binding of whole Gal-4 to immobilized ASF; conditions: for IC50: competitive ELISA, Gal-4 2.5 µM, immobilized ASF; for rp, relative potency (IC50 (lactose)/IC50 (ligand)): whole Gal-4
Procedure: (§1) To design the ELISA method, we first examined the direct binding of the whole Gal-4, Gal-4NL, and Gal-4-CL to standard glycoprotein asialofetuin (ASF, MW 48.4 kDa), which carries up to nine LacNAc epitopes. The ASF was immobilized by hydrophobic interaction in microtiter-plate wells, and the binding of increasing concentrations of Gal-4 proteins was quantified by colorimetric immunodetection using horseradish peroxidase conjugated to an anti-His-tag antibody. The apparent dissociation constants (KD) were calculated from the non-linear regression of the binding curves (Figure 3). […] While for the Gal-4 ELISA measurement we used the concentration of Gal-4 of 2.5 μM, for both subunits, it was 25 μM. […] The Gal-4 proteins were incubated with increasing concentrations of the respective inhibitors, and the concentration-dependent inhibition of the binding to the immobilized ASF was quantified using spectrophotometric colorimetric immunodetection (HRP-conjugated anti-His-tag antibody). The respective half-maximal inhibition constants (IC50) were calculated from the non-linear regression of the sigmoidal curves (Figure 3), and they are shown in Table 2 and Table 3.
(§2) Each incubation step was followed by washing the wells with 3 × 250 µL phosphate-buffered saline (PBS) containing 0.05% Tween® 20. In total, 0.1 µM ASF in PBS (50 µL/well) was coated onto microtiter plates (Nunc Immuno Sorb, ThermoFisher Scientific, Waltham, MA, USA) overnight. After blocking the wells with 2 mg/mL bovine serum albumin (BSA) in PBS buffer (250 µL/well, 1 h), serial dilutions of the inhibitors in PBS buffer containing 2 mM EDTA (EPBS) were incubated with Gal-4 (2.5 µM final dimer concentration) or its subunits, Gal-4CL and Gal-4NL (25 µM final monomer concentration) for 2 h (50 µL/well). The residual bound galectin was labeled with an anti-His-antibody conjugated with horseradish peroxidase (HRP) (Santa Cruz Biotechnology, Heidelberg, Germany; 1:999 dilution in PBS). The colorimetric reaction with TMB One substrate solution (Kem-En-Tec, Taastrup, Denmark; 50 µL/well) was stopped with 3 M hydrochloric acid (HCl) (50 µL/well) and quantified spectrophotometrically at 450 nm (Sunrise; Tecan Group Ltd., Männedorf, Switzerland). The values of half-maximal inhibitory concentrations (IC50) were calculated by non-linear regression (dose–response inhibition-variable slope) of sigmoidal curves from a minimum of three independent experiments using GraphPad Prism 8.4.3 (GraphPad Software, San Diego, CA, USA).

Gal-4NL [1] = molecular target: T2, Gal-4NL; assay: competitive ELISA, inhibition of binding of Gal-4NL subunit to immobilized ASF; conditions: for IC50: competitive ELISA, Gal-4NL 25 µM, immobilized ASF
Procedure: as §1, §2

Gal-4CL = molecular target: T3, Gal-4CL; assay: competitive ELISA, inhibition of binding of Gal-4CL subunit to immobilized ASF; conditions: for IC50: competitive ELISA, Gal-4CL 25 µM, immobilized ASF
Procedure: as §1, §2

Gal-4NL [2] = molecular target: Gal-4NL; design: method as in PMID 33968903; conditions: ITC; cited from earlier work
[3] = dynamic light scattering (DLS) of Gal-4 and its subunits in solution; format: physicochemical; conditions: 25 µM, 25 °C
Procedure: Therefore, we decided to obtain more insights into the potential aggregation behavior of the Gal-4 subunits in solution, which, theoretically, might have contributed to the multivalency effect, even with the monovalent Gal-4 subunits. The hydrodynamic radii of the whole Gal-4 and its subunits in the concentrations used in the ELISA assay (25 µM) were assessed using dynamic light scattering (DLS). This method provided information about the size distribution of the particles in the samples (Table 4). […] Therefore, the larger particles seemed to be more abundant in these distribution diagrams because light scattering is proportional to the sixth power of the scattering-matter diameter. To avoid misinterpretation, we also present the volume-weighed size distributions in Table 4, which highlight the most abundant populations of particles. These values indicate that in the cases of the whole Gal-4 and Gal-4CL, the large aggregates at 1200 nm and 400 nm, respectively, can be neglected (the volume-weighted size distributions accounted for 9 and 7 nm, respectively). The whole Gal-4 formed the most abundant particles, of 11 nm, which was similar to Gal-4CL with 8 nm particles. In the case of Gal-4NL, the solution was more polydisperse, and two significant populations were observed. The first population, of 1.3 nm, probably represented the individual Gal-4NL subunits, whereas the slightly larger population of 16 nm belonged to the aggregated species.
The hydrodynamic diameter of the Gal-4 and its subunits (25 μM) was measured by dynamic light scattering (DLS) using Zetasizer Nano S90 (Malvern Instruments Ltd., Malvern, UK) at 25 °C. The light scattered at θ = 173° from the incident light was fitted to an autocorrelation function using the method of cumulants (Malvern Instruments Ltd., Malvern, UK). The hydrodynamic diameters were determined from five independent repetitions (10–50 runs) in Malvern disposable plastic cuvettes. The particle-size distribution was determined by analyzing the multimodal peak by intensity and volume.

[4] = molecular target: T4, asialofetuin (standard glycoprotein, MW …); assay: ELISA; direct ELISA; ASF (0.1 µM in PBS) coated on microtiter plate overnight, blocked with BSA; increasing concentrations of Gal-4 or its subunits, 2 h; detected with HRP-conjugated anti-His antibody; apparent KD from non-linear regression; conditions: both partners purified

Molecule	IC50 (Gal-4)	rp, relative potency (IC50 (lactose)/IC50 (ligand)) (Gal-4)	rp Gal-4NL, relative potency (IC50 (lactose)/IC50 (ligand)) (Gal-4NL [1])	IC50 (Gal-4NL [1])	rp Gal-4CL, relative potency (IC50 (lactose)/IC50 (ligand)) (Gal-4CL)	IC50 (Gal-4CL)	other results
CC(=O)N[C@H]1[C@H](O[C@H]2[C@@H](O)[C@@H](CO)O[C@@H](O[C@H]3[C@H](O)[C@@H](O)C(O)O[C@@H]3CO)[C@@H]2O)O[C@H](CO)[C@@H](O[C@@H]2O[C@H](CO)[C@H](O)[C@H](O)[C@H]2O)[C@@H]1O (stereo partly shown) [lacto-N-neotetraose (4), lacto-N-neotetraose]	600 ± 100 µM	4.1	7.3	400 ± 100 µM	10	800 ± 300 µM	
CC(C)(C)OC(=O)NCCNC(=S)N[C@@H]1O[C@H](CO)[C@@H](O[C@@H]2O[C@H](CO)[C@H](O)[C@H](O)[C@H]2O)[C@H](O)[C@H]1O [lactosyl-tBoc 10]	2500 µM						
OC[C@H]1O[C@@H](O[C@H]2[C@H](O)[C@@H](O)[C@H](O)O[C@@H]2CO)[C@H](O)[C@@H](O)[C@H]1O [lactose (1), lactose]	2500 ± 200 µM	1.0	1.0	2900 ± 400 µM	1.0	8600 ± 1100 µM	
C[C@@H]1O[C@@H](O[C@H]2[C@H](O[C@H]3[C@H](O)[C@@H](O)C(O)O[C@@H]3CO)O[C@H](CO)[C@H](O)[C@@H]2O)[C@@H](O)[C@H](O)[C@@H]1O (stereo partly shown) [2′-fucosyllactose (2), 2′-fucosyllactose]	1500 ± 200 µM	1.7	4.8	600 ± 60 µM	7.8	1100 ± 100 µM	
CC(=O)N[C@H]1C(O)O[C@H](CO)[C@H](O)[C@@H]1O[C@@H]1O[C@H](CO)[C@H](O)[C@H](O)[C@H]1O (stereo partly drawn) [TF antigen motif (9), β-D-galactopyranosyl-(1→3)-2-acetamido-2-deoxy-D-galactopyranose]	1180 ± 50 µM	2.1	0.8	3500 ± 200 µM	1.5	5800 ± 500 µM	
C[C@@H]1O[C@@H](O[C@H]2[C@H](O[C@H]3[C@H](O)[C@@H](O)C(O)O[C@@H]3CO)O[C@H](CO)[C@H](O)[C@@H]2O[C@H]2O[C@H](CO)[C@H](O)[C@H](O)[C@H]2O)[C@@H](O)[C@H](O)[C@@H]1O (stereo partly shown) [blood-group antigen B (6), blood-group antigen B type 6]	80 ± 30 µM	31	11	260 ± 10 µM	28	300 ± 30 µM	Kd (Gal-4NL [2]): 51 µM
CC(=O)N[C@H]1[C@H](O[C@H]2[C@@H](O)[C@@H](CO)O[C@@H](O[C@H]3[C@H](O)[C@@H](O)C(O)O[C@@H]3CO)[C@@H]2O)O[C@H](CO)[C@@H](O)[C@@H]1O[C@@H]1O[C@H](CO)[C@H](O)[C@H](O)[C@H]1O (stereo partly shown) [lacto-N-tetraose (3), lacto-N-tetraose]	430 ± 70 µM	5.9	14	210 ± 30 µM	18.3	470 ± 900 µM	
Gal-4NL: N-terminal subunit of Gal-4 (aa 1-160) with 10-amino-acid linker, His-tagged (protein, left off: His6, N-terminal, kept, N-terminal subunit of Gal-4 (aa 1-160) with 10-amino-acid linker, His-tagged) MAYVPAPGYQPTYNPTLPYYQPIPGGLNVGMSVYIQGVASEHMKRFFVNFVVGQDPGSDVAFHFNPRFDGWDKVVFNTLQGGKWGSEERKRSMPFKKGAAFELVFIVLAEHYKVVVNGNPFYEYGHRLPLQMVTHLQVDGDLQLQSINFIGGQPLRPQGP							Intensity-Weighed Size Distribution Area (first population) [3]: 13%; Intensity-Weighed Size Distribution Area (second population) [3]: 50%; Intensity-Weighed Size Distribution Size (first population) [3]: 1.3 nm and 1.3 ± 0.3 nm; Intensity-Weighed Size Distribution Size (second population) [3]: 16 nm and 16 ± 7 nm; PDI, polydispersity index [3]: 0.4; Volume-Weighted Size Distribution Area [3]: 100%; Volume-Weighted Size Distribution Size [3]: 3 ± 1 nm
Galectin-4 (whole, His6-tagged construct of human Gal-4) (natural protein, UniProt P56470 1-323, looked up, Galectin-4, human, whole protein (two CRDs joined by the linker peptide); also called whole Gal-4; total Gal-4; not shown: His6, N-terminal, kept) MAYVPAPGYQPTYNPTLPYYQPIPGGLNVGMSVYIQGVASEHMKRFFVNFVVGQDPGSDVAFHFNPRFDGWDKVVFNTLQGGKWGSEERKRSMPFKKGAAFELVFIVLAEHYKVVVNGNPFYEYGHRLPLQMVTHLQVDGDLQLQSINFIGGQPLRPQGPPMMPPYPGPGHCHQQLNSLPTMEGPPTFNPPVPYFGRLQGGLTARRTIIIKGYVPPTGKSFAINFKVGSSGDIALHINPRMGNGTVVRNSLLNGSWGSEEKKITHNPFGPGQFFDLSIRCGLDRFKVYANGQHLFDFAHRLSAFQRVDTLEIQGDVTLSYVQI							Kd [4]: 3.3 ± 1.1 µM
